Here are results for 2 molecules from patent US9017713B2, “Magnetic carrier and medical preparation for controllable delivery and release of active substances, methods of their production and methods of treatment using thereof” (priority 2006, dated 2015).

Series [1] in a line: Desorption of pharmaceutical from heat-sensitive polymer film on magnetic carrier by cooling below LCST. It is filed as physicochemical. Conditions: Fe0.49Rh0.51 plates with graphite layer, film of copolymer NIPAAm with 35 mol % tBuAM; cooled below LCST to 15.9° C. The procedure:
The method may be realized, for example, as follows: quenched magnetic material Fe0.49Rh0.51 covered with a heat-sensitive polymer together with a pharmaceutical (for example, anti-inflammatory) in the form of particles in of about 150-200 nm is administered inside of an organism through a catheter and delivery of the aforementioned particles is performed to a target organ or a tissue. Magnetic field of 2 T is applied on the area, where the particles are concentrated. The magnetic material is cooled by 13° C., which results in refrigerating of a heat-sensitive polymer, for example (co)polymer N-iso-propyl acrylamide, down to temperature below LCST, in this case down to 24° C., and desorption of the pharmaceutical from the surface of heat-sensitive polymer takes place.
A procedure analogous to that described in Example 4, but administration of a pharmaceutical Adriablastin in an organism is made, when the magnetic carrier represents alloy of iron-rhodium Fe0.49Rh0.51, which surface is covered with copolymer NIPAAm with 35 mol % of tBuAM film, with alloy surface preliminary covered with a thin protective graphite layer (preventing oxidation); the magnetic material is prepared in the form of plates. […]

For series [2] the following is noted: F 127 ferrofluid gel, constant magnetic field; cited from earlier work.

`COc1cccc2c1C(=O)c1c(O)c3c(c(O)c1C2=O)C[C@@](O)(C(=O)CO)C[C@@H]3O[C@H]1C[C@H](N)[C@H](O)[C@H](C)O1` [Adriablastin] yielded a Time of desorption in series [1] of 30 ± 5 min.

On to vitamin B12, for which the “Increase of release after application of magnetic field to the gel” value in series [2] is 20%.
